EP1902732A1, “PROPHYLACTIC/THERAPEUTIC AGENT FOR HER2-EXPRESSING CANCER” (Takeda Pharmaceutical Company Limited, priority 2005, dated 2006)

Key:
[1] = test system: phosphorylated acetyl-CoA carboxylase (ACC); assay: Western blotting of phosphorylated ACC in BT-474 cells; type: cell-based, human; conditions: Example 7, two hours, antimycin 1-0.01 nmol/L, oligomycin 100-1 ng/mL, 2,4-dinitrophenol 300-3 µmol/L
Experimental: Human HER2-expressing human breast cancer cell line BT-474 (purchased from American Tissue Culture Collection (ATCC)) was seeded into a 24-multiwell plate (BT-474: 1.2 x 10^5 cells/well) and cultured overnight in a carbon dioxide gas incubator (5% CO2, 37°C). As an energy metabolism inhibitor having a mechanism that differed from that of rotenone, mitochondrial respiratory chain complex III-inhibiting compound antimycin (Wako Pure Chemical Industries) was added to final concentrations of 1, 0.3, 0.1, 0.03 and 0.01 nmol/L while continuing culture. Using another plate, mitochondrial respiratory chain complex V-inhibiting compound oligomycin (Wako Pure Chemical Industries) was added to final concentrations of 100, 30, 10, 3 and 1 ng/mL while continuing culture. In addition, 2,4-dinitrophenol was added to 300, 100, 30, 10 and 3 µmol/L while continuing culture. Two hours after the addition of the agent, the broth was removed and the cells were lysed with an SDS sample buffer (200 µL). Then, this cell lysate was used to perform western blotting analysis. Specifically, this cell lysate (8 µL) was separated by an SDS-PAGE method (gel concentration: 7.5-15%) (Analytical Biochemistry, No. 166, pp. 368-379, 1987) and transferred onto a nitrocellulose membrane (BioRad). Then, an antibody specific to phosphorylated HER2 (Cell signaling technology, Code# 2244), pACC antibody specific to phosphorylated acetyl-CoA carboxylase (ACC) (Cell signaling technology, Code# 3661) and anti-phosphorylated S6K antibody specific to phosphorylated S6 kinase (S6K) (Cell signaling technology, Code# 9209) were used to detect the antibody by chemiluminescent detection with an ECL system (Amersham) to quantify an amount of phosphorylated protein with LAS-1000 plus image analysis device (FUJIFILM).

HER2 = assay: Western blotting of phosphorylated HER2 in BT-474 cells; type: cell-based, human
Experimental: Human HER2-expressing human breast cancer cell line BT-474 (purchased from American Tissue Culture Collection (ATCC)) was seeded into a 24-multiwell plate (BT-474: 1.2 x 10^5 cells/well), and cultured overnight in a carbon dioxide gas incubator (5% CO2, 37°C). A 4-fold dilution series of a mitochondrial respiratory chain complex inhibiting compound (complex I: rotenone, complex III: antimycin, complex V: oligomycin: Wako Pure Chemical Industries) was added starting from a final concentration of 1 µmol/L in 5 steps while continuing culture. After 2 hours, the broth was removed, and the cells were lysed with an SDS sample buffer (200 µL). Western blotting analysis was performed as follows. Specifically, this cell lysate (8 µL) was separated by an SDS-PAGE method (gel concentration: 7.5-15%) (Analytical Biochemistry, No. 166, pp. 368-379, 1987), and transferred to a nitrocellulose membrane (BioRad). Then, an antibody specific to phosphorylated HER2 (Cell signaling technology, Code# 2244), an anti-phosphorylated Akt antibody specific to downstream antiapoptotic signal transducing molecule Akt (Cell signaling technology, Code# 9271) and an anti-phosphorylated MAPK antibody specific to downstream proliferation signal transducing molecule MAPK (Cell signaling technology, Code# 9101) were used to detect the antibody with an ECL system (Amersham) to quantify the amount of phosphorylated protein by an image analysis.
Human HER2-expressing human cancer cell line BT-474 (purchased from ATCC) was seeded into a 24-multiwell plate (1.2 x 10^5 cells/well) and cultured overnight in a carbon dioxide gas incubator (20% O2, 5% CO2, 37°C). A 3-fold dilution series of metformin that activates AMPK (The Journal of Biological Chemistry, Vol. 279, No. 42, pp. 43940-43951, 2004) was added starting from a final concentration of 15 mmol/L in 5 steps while continuing culture. Two hours later, the broth was removed and the cells were lysed with an SDS sample buffer (200 µL). This cell lysate (8 µL) was separated by an SDS-PAGE method (gel concentration: 7.5-15%) (Analytical Biochemistry, No. 166, pp. 368-379, 1987). Then, western blotting analysis was performed in the same manner as in Example 1 to quantify phosphorylated HER2, phosphorylated Akt and phosphorylated MAPK.
Human HER2-expressing human breast cancer cell line BT-474 (purchased from American Tissue Culture Collection (ATCC)) was seeded into a 24-multiwell plate (BT-474: 1.2 x 10^5 cells/well), and cultured overnight in a carbon dioxide gas incubator (5% CO2, 37°C). Mitochondrial respiratory chain complex 1-inhibiting compound rotenone (Wako Pure Chemical Industries) was added in 5 steps at final concentrations of 1, 0.333, 0.111, 0.033 and 0.011 µmol/L while continuing culture. Two hours later, the broth was removed and the cells were lysed with an SDS sample buffer (200 µL). Then, this cell lysate was used to perform western blotting analysis. Specifically, this cell lysate (8 µL) was separated by an SDS-PAGE method (gel concentration: 7.5-15%) (Analytical Biochemistry, No. 166, pp. 368-379, 1987) and transferred to a nitrocellulose membrane (BioRad). Then, an antibody specific to phosphorylated HER2 (Cell signaling technology, Code# 2244), an AMPK antibody specific to AMPK (Cell signaling technology, Code# 2535) and an anti-phosphorylated AMPK antibody specific to phosphorylated AMPK (Cell signaling technology, Code# 2532) were used to detect the antibody by chemiluminescent detection with an ECL system (Amersham) to quantify an amount of phosphorylated protein with LAS-1000 plus image analysis device (FUJIFILM).
Human HER2-expressing human breast cancer cell line BT-474 (purchased from American Tissue Culture Collection (ATCC)) was seeded into a 24-multiwell plate (BT-474: 1.2 x 10^5 cells/well) and cultured overnight in a carbon dioxide gas incubator (5% CO2, 37°C). […]

[2] = Example 7, two hours, antimycin 1-0.01 nmol/L, oligomycin 100-1 ng/mL, 2,4-dinitrophenol 300-3 µmol/L

Compound | phosphorylation of ACC [1] | HER2 phosphorylation (HER2; [2]) | HER2 phosphorylation (HER2; Example 2, 4-fold dilution series from 1 µmol/L in 5 steps, 2 hours)
O=[N+]([O-])c1ccc(O)c([N+](=O)[O-])c1 [2,4-dinitrophenol] | increased dose-dependently | decreased dose-dependently | –
antimycin | increased dose-dependently | decreased dose-dependently | suppression of HER2 phosphorylation was confirmed
